Patent US12661404B2, “Methods and materials for tissue ablation” (Mayo Foundation for Medical Education and Research, priority 2020, dated 2026)

What was measured:
[1] = rat, in vivo
Procedure: Next, in vivo experiments in immunocompetent rats bearing the highly malignant orthotropic N1S1 liver tumors were ablated using LATTE. Percutaneous injection of LATTE was performed and assessment also included CT imaging to mimic the clinical scenario. […] These tumors also received high-resolution in vivo micro-CT imaging following intravenous injection of Exitron contrast agent to allow accurate segmentation of the liver tumors (FIG. 1p-q). […] These tumors at two-weeks were also harvested and evaluated by histology.
(§1) All procedures were approved by the institutional animal care and use committee and performed according to institutional guidelines. […] N1S1 cells were maintained in suspension in a 75 cm^2 culture flasks at 37° C. in a 5% CO2 humidified chamber. […] To prepare the cells for inoculation, N1S1 cell aliquots were rinsed and suspended in plain IMDM (without antibiotics or serum) to yield 2×10^6 cells in 100 μL of fresh aliquots for each inoculation. The rat liver was surgically exposed through upper midline laparotomy under isoflurane anesthesia followed by subcapsular inoculation of N1S1 cells into the left liver lobe. Gentle compression with gauze for hemostasis was used to prevent cell reflux. The abdominal incision was closed using interrupted Vicryl sutures for abdominal muscle and subcuticular suture for the skin, followed by the application of Vetbond tissue adhesive (3M, St. Paul, MN) followed by recovery from anesthesia. Intratumoral injection of the ionic liquid mixture was performed in three groups of rats bearing 0.5 cm^3 N1S1 tumor lesions measured with ultrasound. […] All solutions contained 0.25 mg/mL indocyanine green (ICG, Sigma-Aldrich, St. Louis, MO) solubilized in normal saline. Following intratumoral injections, treated rats were allowed to survive for 2 weeks after treatment, and tumor volume was documented using ultrasound. N1S1 tumor progression and treatment response was assessed using percutaneous ultrasonography. Selected focal zone depth, gain, and tissue harmonic settings were optimized during the acquisition of the initial imaging at baseline, and the same parameters were applied during acquisition after intratumoral injection of LATTE mixture. Serial ultrasound examinations were performed on rat livers following N1S1 inoculation to confirm tumor formation and assess tumor volume. Rats were anesthetized using a gas mixture of 2-3% isoflurane in 100% oxygen via a nose cone. Rats were secured in a supine position on an electronically controlled warming platform to maintain the temperature at 37° C. during the imaging procedure. The abdominal area was shaved and prepped with depilatory cream (Nair, Church& Dwight Co. INC). Initially, abdominal sonography was performed to delineate tumor mass boundaries in grayscale (B-mode) using ACUSON 52000 system (Siemens Inc., Germany) and a multi-frequency linear transducer (9L4, 9.0 MHz). The transducer was positioned to obtain 2D scans via the subcostal window to document liver tumors and measure lesion diameter. […] Tumor volumes were calculated as following: V=(4/3)×π×(1/2) SI×(1/2)LM×1/2 AP. Color Doppler images were also acquired to detect the distribution of the tumor blood flow weekly.

human blood clot = system: human blood clot
Procedure: In a separate experiment blood coagulation was induced in uncougulated human. A blood volume of 4 mL citrated blood loaded into a polypropylene tube and mixed with 400 μL of 0.2 M calcium chloride (CaCl2) for 10 seconds. Aliquouts of 100 μL were deposited into multiple wells on a 96 well plate and the remaining blood volume was kept in the tube. Coagulation was initiated by incubating the samples at 37° C. for 10 minutes.

cardiac muscle = conditions: 1 cc with ICG, 1 hour
Procedure: FIGS. 14A-14B. Effect of an ablation agent on pig heart tissue. FIG. 14A. In a living Yorkshire pig weighing 50-55 kg, a syringe connected to a 21 gauge 7 cm needle was guided through the skin into the myocardium using hand-held ultrasound guidance. […] FIG. 14B.
Pig heart tissue septum received 1 cc injection of LATTE mixture with ICG under ultrasound guidance. Cardiac muscle was removed after 1 hour for near-infrared imaging (NIRF) and histology was performed.

N1S1 liver tumors = assay: Intratumoral injection of LATTE in N1S1 rat model of liver cancer; assay type: in vivo
Procedure: as §1
To visualize normal liver parenchyma on CT imaging, rats received a bolus injection of 400 μL of the alkaline earth metal-based nanoparticle suspension, Exitron nano 12000 (Miltenyi Biotec, Auburn, CA) two hours prior to micro-CT scanning. Rats were anesthetized using inhalation of 2-3% isoflurane in 100% 02 at a constant flow rate of 2 L/minute and placed on a cassette equipped with a warming system and continuous gas exchange and integrated real-time motion detection camera. Fixed rat tissues were placed and immobilized using styrofoam beads inside a humidified plastic chamber. […] The 3D image stacks were reconstructed using NRecon software and InstaRecon CBR Server (version: 1.7.4.6, Bruker, Kontich, Belgium) following adjustment of random movements, beam-hardening correction, and ring artifact reduction and smoothing. 3D volume rendering was visualized using CTVox software (version: 3.3. 0 r1383, Bruker, Kontich, Belgium). The stacks were virtually rotated and axially oriented to yield transverse projections of select volume of interest (VOI) using Data Viewer software (Bruker, Kontich, Belgium).

With choline-geranate [LATTE] the ALP [1] was “*211 ± 29 U/L”, the ALT [1] was 57 ± 13 U/L and the BUN [1] was “**25 ± 2.4 mg/dL”. For the same substance, the CRE [1] was 0.3 ± 0.04 mg/dL, the CRP [1] was 459 ± 38 ng/mL and the GLU [1] was 268 ± 75 mg/dL. The “Total Protein” value [1] was 5.2 ± 0.3 g/dL, the “liver and renal function from serum samples” value [1] was “normal liver and renal function” and the “clot dissolution, coagulated blood in multi-wells” value (human blood clot; overlayed with LATTE) was “clot was dissolved”. The “lysis of blood clot formed in the tube” value (human blood clot; petri dish, incubation with LATTE) was “complete lysis”, the “cardiac muscle histology at injected site” value (cardiac muscle) was “marked ablation of the cardiac myofibers” and the “tumor volume by micro-CT vs saline” value (N1S1 liver tumors; 2 weeks post-treatment) was “substantially smaller tumor volumes”. The “tumor size on gray-scale US, smaller than saline injected group” value (N1S1 liver tumors; 25%-LATTE intratumoral, two weeks) was 5 fold, the “CD68-expressing macrophages, increase” value (N1S1 liver tumors; tumor sections, two weeks) was 16 fold and the “number of apoptotic (cleaved Caspase-3) cells, higher than saline group” value (N1S1 liver tumors; tumor sections, two weeks) was 24 fold. The “treatment response on micro-CT review by radiologist, size criteria” value (N1S1 liver tumors; two weeks) was “complete treatment response”, the “tumor histology (H&E)” value (N1S1 liver tumors; two weeks) was “complete tumor necrosis” and the “morphometric analysis of tumor size and cell count” value (N1S1 liver tumors; two weeks, vs saline) was “significant reduction in tumor size and cell count”. For the same substance, the “proliferating (PCNA) cells” value (N1S1 liver tumors; two weeks, vs saline) was “markedly reduced number of proliferating cells” and the “CD3+ T-lymphocyte infiltration” value (N1S1 liver tumors; within treated tumor margin, two weeks) was “enhanced CD3+T-lymphocyte infiltration”.
